Results published in US10654890B2, “Cyclic peptide derivative, method for preparing same and composition thereof” (priority 2014, dated 2020).
Where a name gives a salt, the structure may show the parent alone.

How the values were obtained:
[1] = tested on: senescence-accelerated model mouse SAMP8; assay: Coefficient of friction measurement test of body hair; type: in vivo
Excerpt: Considering that the anti-aging effect for body hair and hair has been analyzed until now by using a senescence-accelerated model mouse (SAMP8) (Non Patent Literature 40), the inventors of the present invention also conducted an analysis regarding the anti-aging effect for body hair and hair for a senescence-accelerated model mouse administered with the cyclic peptide derivative by using a static and dynamic friction tester and a scanning probe microscope (SPM).
Coefficient of friction of animal hair and body hair is closely related to the state of cuticle as a scale-like tissue present on a surface of hair and body hair, and it is considered that the value of coefficient of friction (COF) increases as damages on cuticle of a hair and body hair increases (Non Patent Literature 40). It is also known that, when the damages on cuticle are high, moisture or nutrients of hair and body hair are lost from the damaged part of cuticle.
As for the apparatus, a handy rub tester TL701 (manufactured by Trinity-Lab Inc.), which is a static and dynamic friction tester, was used. […] Namely, the apparatus even allows measurement of friction on a surface of skin or materials which have a complex curved surface.
The contact member of a static and dynamic friction tester was closely pressed on body hair on forehead part of a mouse, and while applying a load of about 1 N, the member was moved, through an area between two ears, from the forehead to neck part of the mouse for about ten seconds, and the coefficient of friction (COF) was measured. The coefficient of friction (COF) was measured 5 to 10 times per mouse, and an average value thereof was calculated.

[2] = tested on: senescence-accelerated model mouse SAMP8; assay: Step through passive avoidance test; type: in vivo
Excerpt: As a mouse for an in vivo test of the cyclic peptide derivative, senescence-accelerated model mouse SAMP8 which is used as a cognitive disorder model animal of initial Alzheimer's disease accompanied with aging was selected, and as a control, SAMR1 mouse with normal aging was selected.
19-Week old male mice of SAMR1 and SAMP8 were purchased from Japan SLC, Inc., and divided into 5 groups, i.e., mouse group with normal aging (SAMR1), senescence-accelerated model mouse group (SAMP8), {P8+donepezil hydrochloride 1250 μg/kg/day} group as a positive control, and {P8+cyclic peptide derivative 2.5 μg/kg/day} group and {P8+cyclic peptide derivative 25 μg/kg/day} group as a test group. The animal was individually kept, i.e., one animal per cage, in a room with controlled environment {room temperature: 23±2° C., light and dark cycle: lighting time of 12 hours (time with light: 07:00 to 19:00), time without light: 12 hours}. The test was carried out in a time window of from 13:00 to 18:00 in an incubator with constant temperature and constant humidity (temperature 23±2° C., humidity 50±10%). After 10 days of an acclimation period, all mice were provided with standard meal (MEQ, Oriental Yeast Company) and body weight of the animal was recorded everyday during the entire test period. […]
(3) {P8+donepezil hydrochloride 1250 μg/kg/day} group: As a positive control, donepezil hydrochloride (Sanyo Chemical Laboratories CO., LTD.) was dissolved in MQ and prepared to have a concentration of 1250 μg/kg (bodyweight), and then orally administered to a SAMP8 for 5 weeks by using a gastric sonde. The concentration was accurately calculated based on the bodyweight which has been measured every day. […]
(4) {P8+cyclic peptide derivative 2.5 μg/kg/day} group: As a test group, the cyclic peptide derivative was dissolved in MQ and prepared to have a concentration of 2.5 μg/kg (bodyweight), and then orally administered to a SAMP8 for 5 weeks by using a gastric sonde. The concentration was accurately calculated based on the bodyweight which has been measured every day. […]

Compound | coefficient of friction (COF) of body hair ([1]; SAMP8, oral 2.5 μg/kg/day) | coefficient of friction (COF) of body hair ([1]; SAMP8, oral 25 μg/kg/day) | contextual learning ability (latency in post-shock trial) ([2]; SAMP8, oral 2.5 μg/kg/day) | contextual learning ability (latency in post-shock trial) ([2]; SAMP8, oral 25 μg/kg/day) | coefficient of friction (COF) of body hair ([1]; SAMP8, oral donepezil hydrochloride 1250 μg/kg/day) | latency in post-shock trial ([2]; SAMP8, oral 1250 μg/kg/day, compared to SAMP8 not administered with anything, p<0.05)
CCC1(C)Oc2cc(ccc2O)C(O)C(NC)C(=O)NC(C(C)C)C(=O)NC1C(=O)NC(CCC(=O)O)C(=O)O (stereo not drawn) [cyclic peptide derivative] | lowered to the same level as those of a mouse with normal aging | lowered to the same level as those of a mouse with normal aging | recovered to the level of a mouse with normal aging | recovered to the level of a mouse with normal aging | – | –
COc1cc2c(cc1OC)C(=O)C(CC1CCN(Cc3ccccc3)CC1)C2 (stereo not drawn) [donepezil hydrochloride, reference compound] | – | – | – | – | the same level as that of the senescence-accelerated model mouse | short latency in significant sense
